Results from US6716411B2, “Method for finding nucleotide synthesis inhibitors having fewer side effects” (Aventis Pharma Deustschland GmbH, priority 1999, dated 2004).

Assays:
Type in all cases: in vivo
[1] = tested on: adjuvant-induced arthritis; assay: Adjuvant-induced arthritis model, colestyramine 4 hours after compound 1 (Example 3); details: for Increase in body weight / Reduction in arthritis score / Reduction in paw swelling / Surviving animals: orally
Description: Example 3 illustrates an experiment to determine whether the action of the minimally effective dose of compound 1 is reduced by administration of colestyramine at a time interval of 4 hours. This was investigated in the adjuvant-induced arthritis model. The model was carried out according to Example 1. Compound 1 was administered orally in 1% CMC daily from the start to the end of the investigation in a dose of 2.5 mg/kg/day. Colestyramine was likewise administered orally in 1% CMC 4 hours after the administration of compound 1. The corresponding control groups received equal volumes of a 1% CMC at the corresponding times.
In Example 3, we investigated whether relatively constant blood levels existing over a fairly long time were responsible for the desired effects of compound 1 on the immune system, or whether blood levels occurring for a short time (peak blood levels) of compound 1 caused this effect.
For this, compound 1 was administered orally once daily at the lowest efficacious dose of 2.5 mg/kg/day (see Example 1). In the corresponding comparison groups, colestyramine was administered 4 hours after administration of compound 1 in order to lower the blood levels of compound 1 in an accelerated manner after the absorption phase had taken place. By means of this, the action of blood levels of compound 1 existing for different lengths of time on the immunologically related pathological processes in adjuvant-induced arthritis in the rat was investigated.

[2] = Blood plasma level of compound 1 in the rat with and without colestyramine (HPLC-MS/MS); details: for half-life: male, Lewis, rat, plasma
Description: A selective HPLC-MS/MS method was used for the detection of compound 1. The quantitative determination of compound 1 from the blood plasma was carried out as follows:
A solution of an internal standard, then 0.1 M NaOH solution and 1 ml of diethyl ether were added. The mixture was vigorously shaken and the organic phase was discarded. 0.5 N HCl solution was added to the aqueous phase, and the analyte and the internal standard were extracted with 1 ml of diethyl ether. The organic phase was evaporated and taken up in a 1:1 mixture of acetonitrile and water. 10 μl of this solution was injected into an HPLC unit.
The HPLC unit contained a Lichrospher C-18HD column. Using a flow rate of 1 ml/min, the analyte and the internal standard were eluted using the eluent combination acetonitrile+(ammonium acetate solution [10 mmolar]), 67+33, and then selectively detected by mass spectroscopy (LC-MS/MS analysis). During the analysis of the blood plasma samples, calibration samples were taken.
In order to test foreign substances in identical metabolic situations, compound 1 was given only to animals with adjuvant arthritis. The arthritis was induced according to Example 1. The animal weight was on average 210 g. Each group consisted of 6 male Lewis rats. Blood samples were obtained from the tail.
The influence on the blood plasma level of compound 1 was investigated by means of colestyramine. […] During combination therapy with colestyramine, 1000 mg/kg of colestyramine was administered 4 hours after administration of the compound 1. Control animals received 1% CMC at the appropriate times without any active compound. The influence on the pharmacokinetics of compound 1 by colestyramine was investigated both after single administration and after chronic administration of compound 1 with or without colestyramine. Blood samples were obtained 2, 4, 6, 8, 24 and 48 hours after the last administration of compound 1.
The term “area under the curve” (AUC) is understood as meaning the area under the concentration level of a pharmaceutical substance plotted as a function of time. The AUC reflects the extent to which an organism is exposed to a substance. The term “chronic administration” is understood as meaning an administration of the compound 1 over a period of time which at least leads to constant blood levels of the compound 1. These constant blood levels, referred to as the steady state, are achieved after approximately 4 to 5 half-lives of regular taking.

[3] = Half-life in the blood plasma of humans; details: human
Description: The measurement is determined by calculating the half-life of a nucleotide synthesis inhibitor in the blood of a mammal, which is relevant for pharmacokinetic ratios in humans, or in humans in phase I clinical trial development, and comparing it with that of a known nucleotide synthesis inhibitor. The term “half-life” is understood as meaning the time in which the concentration of the nucleotide synthesis inhibitor in the blood plasma is halved. This invention for finding nucleotide synthesis inhibitors which have lower side effects therefore includes

[4] = 2.5 mg/kg/day of compound 1 alone
[5] = 2.5 mg/kg/day of compound 1 and 1000 mg/kg/day of cholestyramine 4 hours later
[6] = chronic administration, 2.5 mg/kg of compound 1
[7] = chronic administration, 2.5 mg/kg of compound 1 and 1000 mg/kg of colestyramine 4 hours later
[8] = single administration, 2.5 mg/kg of compound 1
[9] = single administration, 2.5 mg/kg of compound 1 and 1000 mg/kg of colestyramine 4 hours later

For C/C(O)=C(\C#N)C(=O)Nc1ccc(C(F)(F)F)cc1 [compound 1, N-(4-trifluoromethylphenyl)-2-cyano-3-hydroxycrotonamide], the “desired action on adjuvant-induced arthritis with versus without colestyramine 4 hours after compound 1” value ([1]; 2.5 mg/kg/day of compound 1) was “No difference was seen”, the “Increase in body weight” value [1, 4] was 20% and the “Reduction in arthritis score” value [1, 4] was 70%. For the same compound, the “Reduction in paw swelling” value [1, 4] was 78%, the Surviving animals [1, 4] was 100% and the “Increase in body weight” value [1, 5] was 20%. The “Reduction in arthritis score” value [1, 5] was 81%, the “Reduction in paw swelling” value [1, 5] was 86% and the Surviving animals [1, 5] was 100%. For the same compound, the “Area under the curve 0-48 hours” value [2, 6] was 63.58 μg/ml × hr, the “Maximum blood plasma level” value [2, 6] was 5.73 µg/mL and the “Area under the curve 0-48 hours” value [2, 7] was 37.81 μg/ml × hr. The “Maximum blood plasma level” value [2, 7] was 4.66 µg/mL, the half-life ([2]; oral, 2.5 mg/kg, chronic administration, 2.5 mg/kg of compound 1) was 3.45 h and the half-life ([2]; oral, 2.5 mg/kg, single administration, 2.5 mg/kg of compound 1, rats with adjuvant arthritis) was 3.85 h. For the same compound, the half-life ([2]; oral, chronic administration, 2.5 mg/kg of compound 1 and 1000 mg/kg of colestyramine 4 hours later) was 3.47 h, the half-life ([2]; oral, single administration, 2.5 mg/kg of compound 1 and 1000 mg/kg of colestyramine 4 hours later) was 3.32 h and the half-life ([2]; po, 2.5 mg/kg/day, in rats, approximately, orally administered) was 4 to 8 h. For the same compound, the “AUC reduced by administration of colestyramine” value ([2]; multiple administration) was 40%, the “AUC reduced by administration of colestyramine” value ([2]; single administration) was 30% and the “Area under the curve 0-48 hours” value [2, 8] was 141.69 μg/ml × hr. The “Maximum blood plasma level” value [2, 8] was 10.15 µg/mL, the “Area under the curve 0-48 hours” value [2, 9] was 99.90 μg/ml × hr and the “Maximum blood plasma level” value [2, 9] was 9.62 µg/mL. The half-life [3] was ≤ 350 h and the half-life ([3]; approximately) was ~336 h.
